Measured values from US20260070895A1, “CRYSTALLINE FORMS” (QUIMATRYX, S.L., priority 2022, published 2026).

Columns and labels:
[1] = Aqueous solubility at 37° C. (HPLC of filtered suspension); type: physicochemical; settings: for peak solubility: at 1 hour
Experimental: The solubility of novel crystalline forms of QTX125 was assessed in the following aqueous solutions: (i) phosphate buffer, pH 3.5, 0.9% w/v sodium chloride; (ii) phosphate buffer, pH 6.5, 0.9% w/v sodium chloride; (iii) acetate buffer, pH 4.5, 0.9% w/v sodium chloride; (iv) citro-phosphate buffer, pH 4.5, 0.9% w/v sodium chloride; (v) sodium chloride, 0.9% w/v and (vi) deionised water. All assays were completed at 37° C.
In brief, 30 mg QTX125 was dispensed into vessels followed by 5 mL of the appropriate aqueous buffer. Mixtures were suspended by agitation and heated to 37° C. At various fixed intervals, an 0.4 mL aliquot of the suspension was removed, filtered and diluted for examination by HPLC. A single HPLC reference sample was used.

[2] = Photostability in solution (THF and water), HPLC; type: physicochemical; settings: in solution (THF and water), sealed under nitrogen in amber glass bottles
Experimental: The method for determining purity by HPLC—used throughout these examples—used the following parameters:
The photostability of novel crystalline forms of QTX125 was assessed at solid state and in solution. Where ‘forced illumination’ conditions were used, samples were illuminated at 12 Klux/hour and 2.8 UV W/m^2/hour. Samples were stored at a temperature of 30° C. Following incubation, the chemical purity of QTX125 was measured by HPLC.
The following index is provided to aid navigation of the data presented in Tables 3.1.1 to 3.3.6: • 3.1.x—Assessment of the photostability of QTX125 Form 2. • 3.2.x—Assessment of the photostability of amorphous QTX125. • 3.3.x—Assessment of the photostability of the QTX125 1:2 L-Lysine adduct. • 3.x.1—Samples (at solid state) stored in unsealed clear glass bottles, subject to forced illumination. • 3.x.2—Samples (at solid state) sealed under nitrogen in clear glass bottles, subject to forced illumination. • 3.x.3—Samples (at solid state) sealed under nitrogen in amber glass bottles, illuminated under ambient laboratory conditions • 3.x.4—Samples (at solid state) sealed under nitrogen in amber glass bottles, subject to forced illumination. • 3.x.5—Samples (in solution) sealed under nitrogen in amber glass bottles, illuminated under ambient laboratory conditions. • 3.x.6—Samples (in solution) sealed under nitrogen in amber glass bottles, subject to forced illumination.

[3] = ambient laboratory conditions, 171 hours

**Q.** With `NCCCC[C@H](N)C(=O)O.NCCCC[C@H](N)C(=O)O.O=C(NO)c1ccc(CNC(=O)c2[nH]c(-c3ccc(O)cc3)cc2-c2ccoc2)cc1` [QTX125 1:2 L-Lysine adduct] as the compound, how does the “solubility in a saline solution compared to other forms, including an amorphous form” value [1] read?
**A.** more soluble

**Q.** And the “PXRD analysis of the solid recovered at 24 hours” value ([1]; aqueous buffer, 37° C.)?
**A.** identified the precipitating entity as Form 2

**Q.** And the “concentration of QTX125 (solubility)” value ([1]; buffer (i) phosphate buffer, pH 3.5, 0.9% w/v sodium chloride, 37° C., 1 hour)?
**A.** 0.28 µg/mL

**Q.** And the “concentration of QTX125 (solubility)” value ([1]; buffer (i) phosphate buffer, pH 3.5, 0.9% w/v sodium chloride, 37° C., 4 hours)?
**A.** 0.33 µg/mL

**Q.** And the “concentration of QTX125 (solubility)” value ([1]; buffer (i) phosphate buffer, pH 3.5, 0.9% w/v sodium chloride, 37° C., 7 hours)?
**A.** 0.23 µg/mL

**Q.** And the “concentration of QTX125 (solubility)” value ([1]; buffer (i) phosphate buffer, pH 3.5, 0.9% w/v sodium chloride, 37° C., 24 hours)?
**A.** 0.34 µg/mL

**Q.** What about the “concentration of QTX125 (solubility)” value ([1]; buffer (ii) phosphate buffer, pH 6.5, 0.9% w/v sodium chloride, 37° C., 1 hour) of the same compound?
**A.** 0.32 µg/mL

**Q.** What about the “concentration of QTX125 (solubility)” value ([1]; buffer (ii) phosphate buffer, pH 6.5, 0.9% w/v sodium chloride, 37° C., 4 hours) of the same compound?
**A.** 0.24 µg/mL

**Q.** What about the “concentration of QTX125 (solubility)” value ([1]; buffer (ii) phosphate buffer, pH 6.5, 0.9% w/v sodium chloride, 37° C., 7 hours) of the same compound?
**A.** 0.39 µg/mL

**Q.** And the “concentration of QTX125 (solubility)” value ([1]; buffer (ii) phosphate buffer, pH 6.5, 0.9% w/v sodium chloride, 37° C., 24 hours)?
**A.** 0.28 µg/mL

**Q.** And the “concentration of QTX125 (solubility)” value ([1]; buffer (iii) acetate buffer, pH 4.5, 0.9% w/v sodium chloride, 37° C., 1 hour)?
**A.** 0.25 µg/mL

**Q.** What about the “concentration of QTX125 (solubility)” value ([1]; buffer (iii) acetate buffer, pH 4.5, 0.9% w/v sodium chloride, 37° C., 4 hours) of the same compound?
**A.** 0.35 µg/mL

**Q.** What about the “concentration of QTX125 (solubility)” value ([1]; buffer (iii) acetate buffer, pH 4.5, 0.9% w/v sodium chloride, 37° C., 7 hours) of the same compound?
**A.** 0.35 µg/mL

**Q.** What about the “concentration of QTX125 (solubility)” value ([1]; buffer (iii) acetate buffer, pH 4.5, 0.9% w/v sodium chloride, 37° C., 24 hours) of the same compound?
**A.** 0.33 µg/mL

**Q.** What about the “concentration of QTX125 (solubility)” value ([1]; buffer (iv) citro-phosphate buffer, pH 4.5, 0.9% w/v sodium chloride, 37° C., 1 hour) of the same compound?
**A.** 0.33 µg/mL

**Q.** And the “concentration of QTX125 (solubility)” value ([1]; buffer (iv) citro-phosphate buffer, pH 4.5, 0.9% w/v sodium chloride, 37° C., 4 hours)?
**A.** 0.29 µg/mL

**Q.** What about the “concentration of QTX125 (solubility)” value ([1]; buffer (iv) citro-phosphate buffer, pH 4.5, 0.9% w/v sodium chloride, 37° C., 7 hours) of the same compound?
**A.** 0.37 µg/mL

**Q.** And the “concentration of QTX125 (solubility)” value ([1]; buffer (iv) citro-phosphate buffer, pH 4.5, 0.9% w/v sodium chloride, 37° C., 24 hours)?
**A.** 0.27 µg/mL

**Q.** And the “concentration of QTX125 (solubility)” value ([1]; buffer (v) sodium chloride, 0.9% w/v, 37° C., 1 hour)?
**A.** 29.81 µg/mL

**Q.** And the “concentration of QTX125 (solubility)” value ([1]; buffer (v) sodium chloride, 0.9% w/v, 37° C., 4 hours)?
**A.** 16.91 µg/mL

**Q.** What about the “concentration of QTX125 (solubility)” value ([1]; buffer (v) sodium chloride, 0.9% w/v, 37° C., 7 hours) of the same compound?
**A.** 8.51 µg/mL

**Q.** And the “concentration of QTX125 (solubility)” value ([1]; buffer (v) sodium chloride, 0.9% w/v, 37° C., 24 hours)?
**A.** 4.52 µg/mL

**Q.** What about the “concentration of QTX125 (solubility)” value ([1]; buffer (vi) deionised water, 37° C., 1 hour) of the same compound?
**A.** 24.5 µg/mL

**Q.** And the “concentration of QTX125 (solubility)” value ([1]; buffer (vi) deionised water, 37° C., 4 hours)?
**A.** 16.22 µg/mL

**Q.** And the “concentration of QTX125 (solubility)” value ([1]; buffer (vi) deionised water, 37° C., 7 hours)?
**A.** 10.14 µg/mL

**Q.** What about the “concentration of QTX125 (solubility)” value ([1]; buffer (vi) deionised water, 37° C., 24 hours) of the same compound?
**A.** 7.76 µg/mL

**Q.** What about the “solubility (in words)” value ([1]; buffers (i) to (iv), 37° C.) of the same compound?
**A.** very low

**Q.** And the peak solubility ([1]; deionised water (buffer vi), 37° C., listed as 1:2 L-Lysine adduct)?
**A.** 24.5 µg/mL

**Q.** What about the peak solubility ([1]; deionised water (buffer vi), 37° C., listed as adduct) of the same compound?
**A.** 24.5 µg/mL

**Q.** And the peak solubility ([1]; sodium chloride 0.9% w/v (buffer v), 37° C., listed as 1:2 L-Lysine adduct)?
**A.** 29.81 µg/mL

**Q.** And the peak solubility ([1]; sodium chloride 0.9% w/v (buffer v), 37° C., listed as adduct)?
**A.** 29.81 µg/mL

**Q.** What about the “HPLC peak area, QTX125 RRT 1.00” value [2, 3] of the same compound?
**A.** 93.18%

**Q.** And the “HPLC peak area, RRT 1.04” value [2, 3]?
**A.** 1.50%

**Q.** What about the “HPLC peak area, RRT 1.12” value [2, 3] of the same compound?
**A.** 0.97%

**Q.** What about the “degradation (in words)” value ([2]; ambient laboratory conditions, up to 171 hours) of the same compound?
**A.** degrades

**Q.** And the “HPLC peak area, QTX125 RRT 1.00” value ([2]; forced illumination, 0 hours)?
**A.** 96.83%

**Q.** What about the “HPLC peak area, RRT 1.04” value ([2]; forced illumination, 0 hours) of the same compound?
**A.** 1.15%

**Q.** What about the “HPLC peak area, QTX125 RRT 1.00” value ([2]; forced illumination, 3 hours) of the same compound?
**A.** 98.01%

**Q.** And the “HPLC peak area, RRT 1.04” value ([2]; forced illumination, 3 hours)?
**A.** 0.71%

**Q.** And the “HPLC peak area, RRT 1.12” value ([2]; forced illumination, 3 hours)?
**A.** 0.33%

**Q.** What about the “HPLC peak area, QTX125 RRT 1.00” value ([2]; forced illumination, 50 hours) of the same compound?
**A.** 84.17%

**Q.** What about the “HPLC peak area, RRT 1.04” value ([2]; forced illumination, 50 hours) of the same compound?
**A.** 1.03%

**Q.** What about the “HPLC peak area, RRT 1.12” value ([2]; forced illumination, 50 hours) of the same compound?
**A.** 2.14%

**Q.** What about the “HPLC peak area, QTX125 RRT 1.00” value ([2]; forced illumination, 171 hours) of the same compound?
**A.** 89.96%

**Q.** What about the “HPLC peak area, RRT 1.04” value ([2]; forced illumination, 171 hours) of the same compound?
**A.** 2.82%
